Like-named read-outs stand apart in the source and are kept apart here. No end group written: not given here.
What was measured:
diabetes in NOD mice = conditions: cited from earlier work
EAE in Lewis rats = EAE in Lewis rats injected with gpMBP in CFA, treatment with saline solution of octamer or monomer; type: in vivo; conditions: 4 and 8 days after gpMBP-CFA
From the text: Experimental autoimmune encephalomyelitis (EAE) in the rat is an acute paralytic disease from which most animals spontaneously recover. The disease can be induced in susceptible inbred Lewis and DA rats with myelin basic protein (MBP), or encephalitogenic MBP peptides administered in complete Freund's adjuvant (CFA). The disease can be adoptively transferred to syngeneic recipients with primed T cells that have been reactivated in vitro with antigen. Studies of EAE in susceptible rats have provided many important insights into the interactions of T cells and accessory cells that culminate in the induction of the autoimmune response.
The influence of a saline solution of the 72-85gpMBP octamer on the course of EAE in Lewis rats previously injected with gpMBP emulsified in CFA was investigated. We injected 10 or 50 micrograms of the 72-85 gpMBP octamer into Lewis rats 4 and 8 days after they had been injected with gpMBP-CFA. […] Rats that received an equivalent amount of the 72-85 amino acid gpMBP peptide monomer at day 4 and day 8 developed clinical signs of disease.

[1] = system: adoptively transferred EAE in SJL mice; experiment: EAE induced by adoptive transfer of PLP(139-151) specific T-cell lines into naive SJL mice; type: in vivo; conditions: for additional (relapsing) episodes of EAE: adoptive transfer recipients, treatment initiated after clinical signs of EAE
From the text: The T-cell lines employed for these studies were derived from SJL mice previously immunized with 139CFA. The T-cell lines are used for adoptive transfer studies following the third round of antigen-stimulation in vitro. The source of antigen presenting cells is irradiated syngeneic thymus cells. This is a procedure that is routinely used by other investigators and is known by those of skill in the art (Bourdette, Vandenbark et al. 1989).
We treated some of the cell recipients with 50 micrograms 139MAP on three consecutive days with treatment initiated after the development of clinical signs of EAE. […] This is very clear in vivo data showing the 139MAP-associated inhibition of rEAE in the SJL mouse model. The 139MAP reagent inhibits the progression of clinically apparent disease as well as the onset and the continued development of EAE in both the actively-induced as well as the adoptively-transferred forms of EAE.

EAE in SJL mice = EAE in SJL mice immunized with PLP(139-151) in CFA (139CFA), treatment after immunization before disease; type: in vivo; conditions: for development of clinical signs of EAE: intraperitoneal or subcutaneous, days 2, 7 and 10 after 139CFA
From the text: For all of these studies, MAP octamers of the 139-151aa peptide of proteolipid protein (PLP) were used and prepared by solid phase peptide synthesis as described above in the Materials and Methods. Each PLP(139-151) MAP octamer is comprised of eight polypeptide chains of the 139-151 aa of PLP each covalently linked to a central core as shown in FIG. 1. The general structure of the MAP (FIG. 1) is therefore dissimilar to the linear array typical of the peptide multimers used by others in the prior art (Falk, Rotzschke et al. 2000; Falk, Rotzschke et al. 2000; Stienekemeier, Falk et al. 2001). MAPs are also referred to as dendrimers to emphasize the branched nature of their structure (Bracci, Falciani et al. 2003). Initial studies with the 139-151 PLP MAP octamers (139MAP) used SJL mice that were first immunized with the encephalitogenic 139-151 PLP peptide in CFA (139CFA) and subsequently injected with saline solutions of 139MAP. […] For this initial study, mice were treated by intraperitoneal or subcutaneous injection with 139MAP on days 2, 7 and 10 following 139CFA injection.

[2] = system: antigen specific lymphocytes; experiment: Additional studies on lymphoid traffic after 139MAP treatment; type: in vivo
[3] = system: relapsing EAE (rEAE) in SJL mice; conditions: for relapses (rEAE): 100 microgram doses on two consecutive days after clinical disease evident
Protocol: Animals are graded as grade 1 when the first sign of disease is evident which is a flaccid tail.
The 139MAP-treated animals were given 100 microgram doses of 139MAP on two consecutive days. […] All reagents were administered on two consecutive days after clinical disease was evident.

[4] = system: PLP(139-151) peptide specific T-cell lines; experiment: Proliferation of encephalitogenic T-cell line in response to antigen in vitro; type: cell-based; conditions: T-cell line from 139CFA-immunized SJL mice
[5] = system: PLP(178-191) induced rEAE in SJL mice; experiment: EAE in SJL mice immunized with PLP(178-191) in CFA (antigen specificity); type: in vivo; conditions: for disease development: SJL mice immunized with PLP(178-191) in CFA, treated days 2, 7 and 10 (FIG. 5)
From the text: The relapsing disease that develops in SJL mice is thought to occur due to the immune response that develops against additional encephalitogenic determinants found in PLP and MBP (Cross, Tuohy et al. 1993). […] Immunization of SJL mice with the PLP(178-191) peptide in CFA caused the development of clinically apparent disease 12-14 days following immunization. […] FIG. 6 represents a second experiment (4 animals per group) in which mice treated with 139MAP after they developed initial signs of EAE due to immunization with the PLP(178-191) peptide.

## B(9-23): peptide of residues 9-23 of the insulin B chain (SEQ ID NO:2) (SHLVEALYLVCGERG)
Diabetes in NOD mice; peptide therapy
  anaphylaxis: development of anaphylaxis
Diabetes in NOD mice; subcutaneous or intranasal administration
  onset and incidence of diabetes: marked delay in the onset and a decrease in the incidence of diabetes

## 72-85 gpMBP octamer: chemically synthesized octamers of the 72-85 amino acid peptide of guinea pig myelin basic protein (SEQ ID NO:7) (LPQKSQRSQDENPV; also: octamer on lysine-branched core)
EAE in Lewis rats; 10 micrograms
  clinical signs of EAE: developed less severe disease compared to the control group
EAE in Lewis rats; 50 micrograms
  clinical signs of EAE: did not develop any signs of clinical disease
[1]
  additional (relapsing) episodes of EAE: developed a relapsing episode of clinically severe EAE
EAE in SJL mice; SJL mice immunized with 139CFA, control octamer, dose not stated (FIG. 3)
  development of EAE disease: had no effect of the development of EAE disease

## 72-85 amino acid gpMBP peptide monomer: monomer of the 72-85 amino acid peptide of guinea pig myelin basic protein (LPQKSQRSQDENPV; UniProt P25188 72-85, looked up, fragment) [reference compound]
EAE in Lewis rats; 10 micrograms
  clinical signs of EAE: No diminution of the signs of clinical disease
EAE in Lewis rats; 50 micrograms
  clinical signs of EAE: modest diminution of the clinical signs of EAE

## 139MAP: chemically synthesized octamer of PLP 139-151 peptide (HSLGKWLGHPDKF, SEQ ID NO:8), each linked through KKKKKGG spacer to a lysine-branched core (also: octamer, each linked via KKKKKGG spacer to lysine-branched core (MAP))
[2]
  lymphoid traffic to the autoimmune target organ: alters lymphoid traffic to the autoimmune target organ
[1]; 50 micrograms on three consecutive days, initiated after clinical signs of EAE
  continued development of the first episode of disease: inhibited the continued development of the first episode of disease
[1]; administered prior to onset of disease or at first indication of disease (tail flaccidity), data not shown
  development of adoptively transferred EAE and subsequent relapses: completely inhibited
[1]
  additional (relapsing) episodes of EAE: no or very modest signs of additional episodes of EAE
[1]; listed as MAP139 octamer
  additional (relapsing) episodes of EAE: inhibits the development of rEAE
[3]
  relapses (rEAE): inhibited the relapse component of this disease
[3]; 100 microgram doses on two consecutive days after clinical disease evident (grades 1-3)
  subsequent course of disease: profound and immediate influence on the subsequent course of disease
[3]; listed as MAP139 octamer
  relapses (rEAE): effectively inhibits rEAE
[4]
  T-cell line proliferation in response to antigen: proliferated in response
EAE in SJL mice; SJL mice, 20 micrograms
  development of clinical signs of EAE: Virtually all signs of disease were prevented
EAE in SJL mice; SJL mice, 100 micrograms
  development of clinical signs of EAE: Virtually all signs of disease were prevented
EAE in SJL mice; SJL mice, three injections of 5 micrograms after 139CFA (FIG. 3)
  diminution of EAE: considerable diminution of EAE
[5]
  disease development: no significant inhibition of disease development
[5]; listed as MAP139 octamer
  disease development: does not inhibit the development of PLP(178-191) induced rEAE
[5]; SJL mice immunized with PLP(178-191), treated after initial signs of EAE
  development of relapses: inhibits the development of relapses
